Data: US10323022B2, “Pyrrolidinyl urea, pyrrolidinyl thiourea and pyrrolidinyl guanidine compounds as TrkA kinase inhibitors” (Array BioPharma Inc., priority 2011, dated 2019)
Structures can show the parent of a compound that is named as a salt.

Target: TrkA (Homo sapiens (Human), UniProt P04629)
Assay: TrkA Omnia Assay
Format: biochemical
Conditions: averaged IC50; 20 nM enzyme, 500 μM ATP, 10 μM peptide substrate
Description: Trk enzymatic selectivity was assessed using Omnia™ Kinase Assay reagents from Invitrogen Corp. Enzyme (TrkA from Invitrogen Corp.) and test compound (various concentrations) were incubated for 10 minutes at ambient temperature in a 384-well white polypropylene plate (Nunc catalog#267462). Omnia Tyr Peptide #4, as well as ATP, were then added to the plate. Final concentrations were as follows: 20 nM enzyme, 500 μM of ATP, 10 μM peptide substrate. The assay buffer consisted of 25 mM MOPS pH 7.5, 0.005% (v/v) Triton X-100 and 5 mM MgCl2. The production of phosphorylated peptide was monitored continuously for 70 minutes using a Molecular Devices FlexStation II^384 microplate reader (excitation=360 nm; emission=485 nm). Initial rates were calculated from the progress curves. IC50 values were calculated from these rates using either a 4 or 5-parameter logistic curve fit.

Chain of TrkA (P04629 33-796): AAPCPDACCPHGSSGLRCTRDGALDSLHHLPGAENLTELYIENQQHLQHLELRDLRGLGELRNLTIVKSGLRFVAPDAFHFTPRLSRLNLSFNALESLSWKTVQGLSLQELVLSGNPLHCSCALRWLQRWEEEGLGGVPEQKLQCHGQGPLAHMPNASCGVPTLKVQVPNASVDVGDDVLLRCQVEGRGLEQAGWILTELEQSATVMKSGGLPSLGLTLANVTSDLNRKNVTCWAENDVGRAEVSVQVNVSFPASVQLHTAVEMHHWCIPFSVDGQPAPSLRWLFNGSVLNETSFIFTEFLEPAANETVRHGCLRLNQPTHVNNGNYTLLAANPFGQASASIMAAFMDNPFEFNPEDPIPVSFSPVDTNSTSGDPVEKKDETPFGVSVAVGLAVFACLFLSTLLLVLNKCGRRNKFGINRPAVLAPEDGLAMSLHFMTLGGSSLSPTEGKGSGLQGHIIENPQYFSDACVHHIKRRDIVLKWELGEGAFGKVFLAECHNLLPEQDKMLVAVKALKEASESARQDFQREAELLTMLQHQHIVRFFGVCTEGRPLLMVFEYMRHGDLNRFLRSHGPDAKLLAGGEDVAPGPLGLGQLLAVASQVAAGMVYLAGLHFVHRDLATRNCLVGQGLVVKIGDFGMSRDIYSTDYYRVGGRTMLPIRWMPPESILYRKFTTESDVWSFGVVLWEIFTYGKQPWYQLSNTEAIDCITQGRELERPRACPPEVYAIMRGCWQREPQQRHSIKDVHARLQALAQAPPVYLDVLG

Molecule	IC50 [nM]
1-((3S,4R)-4-(3,4- fluorophenyl)-1-(2- methoxyethyl)pyrrolidin-3-yl)- 3-(1-(3-chlorophenyl)-1′,4- dimethyl-1H,1′H-[3,4′- bipyrazol]-5-yl)urea [Example 321]	< 100
COCCN1C[C@@H](NC(=O)Nc2cc(C(C)(C)C)nn2-c2ccc(C)cc2)[C@H](c2ccccc2)C1 (relative stereo) [Example 2, 1-(3-tert-butyl-1-p-tolyl-1H-pyrazol-5-yl)-3-(trans-1-(2-methoxyethyl)-4-phenylpyrrolidin-3-yl) urea hydrochloride]	1000 to 10000
COCCN1C[C@@H](NC(=O)Nc2c3c(nn2-c2ccccc2)CCC3)[C@H](c2ccc(F)c(F)c2)C1 (relative stereo) [Example 3, trans-1-(4-(3,4-difluorophenyl)-1-(2-methoxyethyl)pyrrolidin-3-yl)-3-(2-phenyl-2,4,5,6-tetrahydrocyclopenta[c]pyrazol-3-yl)urea]	< 100
COCCN1C[C@@H](NC(=O)Nc2cc(C(C)C)nn2-c2ccccc2)[C@H](c2ccc(F)c(F)c2)C1 (relative stereo) [Example 4, trans-1-(4-(3,4-difluorophenyl)-1-(2-methoxyethyl)pyrrolidin-3-yl)-3-(3-isopropyl-1-phenyl-1H-pyrazol-5-yl) urea]	< 100
COCCN1C[C@@H](NC(=O)Nc2cc(C(C)(C)C)nn2C)[C@H](c2ccccc2)C1 (relative stereo) [Example 5, 1-(3-tert-butyl-1-methyl-1H-pyrazol-5-yl)-3-(trans-1-(2-methoxyethyl)-4-phenylpyrrolidin-3-yl) urea]	1000 to 10000
COCCN1C[C@@H](NC(=O)Nc2cc(C)nn2C)[C@H](c2ccccc2)C1 (relative stereo) [Example 6, 1-(1,3-dimethyl-1H-pyrazol-5-yl)-3-(trans-1-(2-methoxyethyl)-4-phenylpyrrolidin-3-yl) urea]	1000 to 10000
COCCN1C[C@@H](NC(=O)Nc2cc(C(C)(C)C)nn2-c2cccnc2)[C@H](c2ccccc2)C1 (relative stereo) [Example 7, 1-(3-tert-butyl-1-(pyridin-3-yl)-1H-pyrazol-5-yl)-3-(trans-1-(2-methoxyethyl)-4-phenylpyrrolidin-3-yl) urea]	1000 to 10000
COCCN1C[C@@H](NC(=O)Nc2cc(C(C)(C)C)nn2-c2ccc(F)cc2)[C@H](c2ccccc2)C1 (relative stereo) [Example 8, 1-(3-tert-butyl-1-(4-fluorophenyl)-1H-pyrazol-5-yl)-3-(trans-1-(2-methoxyethyl)-4-phenyl-pyrrolidin-3-yl)urea]	100 to 1000
COCCN1C[C@@H](NC(=O)Nc2cc(C3CC3)nn2-c2ccccc2)[C@H](c2ccccc2)C1 (relative stereo) [Example 9, 1-(3-cyclopropyl-1-phenyl-1H-pyrazol-5-yl)-3-(trans-1-(2-methoxyethyl)-4-phenylpyrrolidin-3-yl)urea]	< 100
COCCN1C[C@@H](NC(=O)Nc2cc(-c3ccccc3)nn2-c2ccccc2)[C@H](c2ccccc2)C1 (relative stereo) [Example 10, 1-(1,3-diphenyl-1H-pyrazol-5-yl)-3-(trans-1-(2-methoxyethyl)-4-phenylpyrrolidin-3-yl)urea]	< 100
COCCN1C[C@@H](NC(=O)Nc2cc(C)nn2-c2ccccc2)[C@H](c2ccccc2)C1 (relative stereo) [Example 11, 1-(trans-1-(2-methoxyethyl)-4-phenylpyrrolidin-3-yl)-3-(3-methyl-1-phenyl-1H-pyrazol-5-yl)urea]	< 100
COCCN1C[C@@H](NC(=O)Nc2cc(C(C)C)nn2-c2ccccc2)[C@H](c2ccccc2)C1 (relative stereo) [Example 12, 1-(3-isopropyl-1-phenyl-1H-pyrazol-5-yl)-3-(trans-1-(2-methoxyethyl)-4-phenylpyrrolidin-3-yl)urea]	< 100
COCCN1C[C@@H](NC(=O)Nc2cc(-c3ccccc3)nn2C)[C@H](c2ccccc2)C1 (relative stereo) [Example 13, 1-(trans-1-(2-methoxyethyl)-4-phenylpyrrolidin-3-yl)-3-(1-methyl-3-phenyl-1H-pyrazol-5-yl)urea]	< 100
COCCN1C[C@@H](NC(=O)Nc2c3c(nn2-c2ccccc2)CCC3)[C@H](c2ccccc2)C1 (relative stereo) [Example 14, 1-(trans-1-(2-methoxyethyl)-4-phenylpyrrolidin-3-yl)-3-(2-phenyl-2,4,5,6-tetrahydrocyclopenta[c]pyrazol-3-yl)urea]	< 100
COCCN1C[C@@H](NC(=O)Nc2ccnn2-c2ccccc2)[C@H](c2ccccc2)C1 (relative stereo) [Example 15, 1-(trans-1-(2-methoxyethyl)-4-phenylpyrrolidin-3-yl)-3-(1-phenyl-1H-pyrazol-5-yl)urea]	100 to 1000
COCCN1C[C@@H](NC(=O)Nc2cc(C(C)(C)C)nn2-c2ccccc2F)[C@H](c2ccccc2)C1 (relative stereo) [Example 16, 1-(3-tert-butyl-1-(2-fluorophenyl)-1H-pyrazol-5-yl)-3-(trans-1-(2-methoxyethyl)-4-phenylpyrrolidin-3-yl)urea]	1000 to 10000
COCCN1C[C@@H](NC(=O)Nc2cc(C(C)(C)C)nn2-c2cccc(F)c2)[C@H](c2ccccc2)C1 (relative stereo) [Example 17, 1-(3-tert-butyl-1-(3-fluorophenyl)-1H-pyrazol-5-yl)-3-(trans-1-(2-methoxyethyl)-4-phenylpyrrolidin-3-yl)urea]	100 to 1000
COCCN1C[C@@H](NC(=O)Nc2c(C)c(C)nn2-c2ccccc2)[C@H](c2ccccc2)C1 (relative stereo) [Example 18, 1-(3,4-dimethyl-1-phenyl-1H-pyrazol-5-yl)-3-(trans-1-(2-methoxyethyl)-4-phenylpyrrolidin-3-yl)urea]	< 100
COCCN1C[C@@H](NC(=O)Nc2c3c(nn2-c2cccnc2)CCC3)[C@H](c2ccccc2)C1 (relative stereo) [Example 19, 1-(trans-1-(2-methoxyethyl)-4-phenylpyrrolidin-3-yl)-3-(2-(pyridin-3-yl)-2,4,5,6-tetrahydrocyclopenta[c]pyrazol-3-yl)urea]	100 to 1000
COCCN1C[C@@H](NC(=O)Nc2ccnn2C)[C@H](c2ccccc2)C1 (relative stereo) [Example 20, 1-(trans-1-(2-methoxyethyl)-4-phenylpyrrolidin-3-yl)-3-(1-methyl-1H-pyrazol-5-yl)urea]	1000 to 10000
COCCN1C[C@@H](NC(=S)Nc2c3c(nn2-c2ccccc2)CCC3)[C@H](c2ccccc2)C1 (relative stereo) [Example 21, 1-(trans-1-(2-methoxyethyl)-4-phenylpyrrolidin-3-yl)-3-(2-phenyl-2,4,5,6-tetrahydrocyclopenta[c]pyrazol-3-yl)thiourea]	< 100
COCCN1C[C@@H](NC(=O)Nc2c3c(nn2-c2cccc(F)c2)CCC3)[C@H](c2ccccc2)C1 (relative stereo) [Example 22, 1-(2-(3-fluorophenyl)-2,4,5,6-tetrahydrocyclopenta[c]pyrazol-3-yl)-3-(trans-1-(2-methoxyethyl)-4-phenylpyrrolidin-3-yl)urea]	< 100
COCCN1C[C@@H](NC(=O)Nc2c3c(nn2-c2ccc(F)cc2)CCC3)[C@H](c2ccccc2)C1 (relative stereo) [Example 23, 1-(2-(4-fluorophenyl)-2,4,5,6-tetrahydrocyclopenta[c]pyrazol-3-yl)-3-(trans-1-(2-methoxyethyl)-4-phenylpyrrolidin-3-yl)urea]	< 100
COCCN1C[C@@H](NC(=O)Nc2cc(C3CCCC3)nn2-c2ccccc2)[C@H](c2ccccc2)C1 (relative stereo) [Example 24, 1-(3-cyclopentyl-1-phenyl-1H-pyrazol-5-yl)-3-(trans-1-(2-methoxyethyl)-4-phenylpyrrolidin-3-yl)urea]	< 100
CCn1nc(-c2ccccc2)cc1NC(=O)N[C@@H]1CN(CCOC)C[C@H]1c1ccccc1 (relative stereo) [Example 25, 1-(1-ethyl-3-phenyl-1H-pyrazol-5-yl)-3-(trans-1-(2-methoxyethyl)-4-phenylpyrrolidin-3-yl)urea]	100 to 1000
COCCN1C[C@@H](NC(=O)Nc2c3c(nn2-c2ccccc2)CCCC3)[C@H](c2ccccc2)C1 (relative stereo) [Example 26, 1-(trans-1-(2-methoxyethyl)-4-phenylpyrrolidin-3-yl)-3-(2-phenyl-4,5,6,7-tetrahydro-2H-indazol-3-yl)urea]	< 100
COCCN1C[C@@H](NC(=O)Nc2c3c(nn2C)CCC3)[C@H](c2ccccc2)C1 (relative stereo) [Example 27, 1-(trans-1-(2-methoxyethyl)-4-phenylpyrrolidin-3-yl)-3-(2-methyl-2,4,5,6-tetrahydrocyclopenta[c]pyrazol-3-yl)urea]	1000 to 10000
COCCN1C[C@@H](NC(=O)Nc2c(-c3ccccc3)c(C)nn2C)[C@H](c2ccccc2)C1 (relative stereo) [Example 28, 1-(1,3-dimethyl-4-phenyl-1H-pyrazol-5-yl)-3-(trans-1-(2-methoxyethyl)-4-phenylpyrrolidin-3-yl)urea]	100 to 1000
COCCN1C[C@@H](NC(=O)Nc2cc(C(C)(C)C)nn2-c2ccccc2C)[C@H](c2ccccc2)C1 (relative stereo) [Example 29, 1-(3-tert-butyl-1-o-tolyl-1H-pyrazol-5-yl)-3-(trans-1-(2-methoxyethyl)-4-phenylpyrrolidin-3-yl)urea]	1000 to 10000
COCCN1C[C@@H](NC(=O)Nc2cc(C(C)(C)C)nn2-c2cccc(C)c2)[C@H](c2ccccc2)C1 (relative stereo) [Example 30, 1-(3-tert-butyl-1-m-tolyl-1H-pyrazol-5-yl)-3-(trans-1-(2-methoxyethyl)-4-phenylpyrrolidin-3-yl)urea]	< 100
